The text below walks through data of patent US9012492B2, “Apocynin-lipoic acid conjugates and uses thereof” (priority 2011, dated 2015).

The test system of data set [1] is markers of oxidative stress (SOD1, SOD2, GSH, GSSG, H2O2, HNE-His adducts, DNA fragmentation). Nature of the data set: Markers of oxidative stress in ischemic cortex following I/R. Format: in vivo, rat. The procedure:
To examine the effect of the compound of Formula (Ia) on various markers of oxidative stress throughout the 5.5 h of reperfusion, injections of the optimal dose of the compound of Formula (Ia) (0.1 mg/kg; 1 ml/kg iv; n=5 per group at each time point) or vehicle (25% EtOH; 1 ml/kg iv; n=5 per group at each time point) were made 30 min prior to the onset of MCAO. The sutures were left in place for 30 min. Brains were removed, and cortical tissue was collected at the end of the 30 min of occlusion (no reperfusion), or following 30 min, 1, 2, 4, or 5.5 h of reperfusion. At the end of each time point, animals were perfused transcardially with 200 ml of 100 mM PBS (pH 7.4), and the brains were removed. The ipsilateral cerebral cortex was isolated, and an 8-mm diameter biopsy punch was used to obtain tissue from the ischemic core. The tissue was weighed and homogenized (40% wt/vol) in ice-cold PBS. Aliquots of whole homogenate were frozen at −80° C. immediately for measurements of hydrogen peroxide (H2O2). The remaining sample was diluted 1:2 with ice-cold PBS and centrifuged at 12,000 g for 15 min at 4° C. Aliquots of the supernatant were stored at −80° C. until assayed for protein levels, superoxide dismutase (SOD1 and SOD2) activity, 4-hydroxynonenal-histodine (HNE-His) adducts (OxiSelect Kits, Cell Biolabs, San Diego, Calif.), reduced glutathione (GSH), oxidized glutathione (GSSG; Cayman Chemical, Ann Arbor Mich.), and cytoplasmic enrichment of DNA fragments (apoptosis) (Roche Diagnostics, Montreal, QC, Canada) using selective assay kits according to manufacturer's specifications.

Data set [2] has as its system human liver microsomes (HLM). Nature of the data set: Metabolic stability using human liver microsomes. It is filed as in vitro ADME. An excerpt:
Table 9 summarizes the experimental conditions used in the studies of the metabolic stability of the compound of Formula (Ia) using dog liver microsomes and human liver microsomes.

The subject of a further data set is Sprague-Dawley rats. Nature of the data set: Blood pressure, heart rate and baroreceptor reflex sensitivity. Format: in vivo, rat. The procedure: Sprague-Dawley rats were used to study the effects of (Ia) on reperfusion injury following stroke in a rodent model. The rats were anesthetized, and injected with (la) (0.01-0.1 mg/kg). After 30 minutes, occlusion of the middle cerebral artery (MCA) was performed.
All experiments were conducted on male Sprague-Dawley rats (total of 229 rats; 250-350 g; Charles River, Montreal, PQ, Canada). For all animals, food and tap water were available ad libitum. Rats were anesthetized with sodium thiobutabarbital (Inactin; Sigma-Aldrich; St. Louis, Mo.; 100 mg/kg ip), which provided a stable plane of anesthesia for the full duration of the experimental time period. To monitor blood pressure and heart rate, a polyethylene catheter (PE-50; Clay Adams, Parsippany, N.J.) was inserted into the right femoral artery. For intravenous administration of drugs, a second polyethylene catheter (PE-10; Clay Adams) was inserted into the right femoral vein. Arterial blood pressure was measured with a pressure transducer (Gould P23 ID, Cleveland, Ohio) connected to a Gould model 2200S polygraph. Heart rate was determined from the pulse pressure using a Gould tachograph (Biotach). […] An endotracheal tube was inserted to facilitate breathing. Body temperature was monitored and maintained at 37±1° C. using a Physitemp feedback system (Physitemp Instruments, Clifton, N.J.).
To determine the effect of the compound of Formula (Ia) (0.1 mg/kg; 1 ml/kg; n=4) or vehicle (25% EtOH; 1 ml/kg; n=4) administration on baseline blood pressure and heart rate, continuous recordings of blood pressure and heart rate were taken prior to and following drug or vehicle administration. Further recordings of the parameters were made at 15, 30, 45, 60, 90, and 120 min following drug administration, at which time the experiment was terminated.
To determine the effect of drug administration on autonomic reflex activation, the baroreceptor reflex was evoked using a bolus intravenous injection of the α-adrenergic receptor agonist, phenylephrine-hydrochloride (Sigma-Aldrich; 0.1 ml; 2.5 μg/ml iv). The ratio of the peak change in the magnitude of the reflex bradycardia to the magnitude of the phenylephrine-induced pressor response [ΔHR (heart rate)/ΔMAP (mean arterial pressure)] was used as a measure of baroreceptor reflex sensitivity (BRS). BRS was tested at 10 min and immediately prior to the compound of Formula (Ia) (0.1 mg/kg; 1 ml/kg; n=3) or vehicle (25% EtOH; 1 ml/kg; n=3) administration. BRS was then tested 15 and 30 min following drug administration (prior to MCAO), and then 5, 10, 20, and 30 min during MCAO (30 min MCAO), as well as 10, 20, 30, 60, 90, 120, 150, 210, 270, and 330 min following suture removal. The experiments were terminated after 5.5 h of reperfusion.

[3] abbreviates: 0.1 mg/kg iv 30 min prior to I/R, during 30 min MCAO and 5.5 h reperfusion.
[4] abbreviates: 0.1 mg/kg iv, 2-h continuous recording, no stroke.

Each structure is given as a SMILES string.

For the compound `COc1cc(C(C)=O)ccc1OC(=O)CCCCC1CCSS1` (stereo not drawn) [compound of Formula (Ia)], the “mitochondrial SOD2 activity levels vs vehicle” value in data set [1] (0.1 mg/kg iv 30 min prior to MCAO, 4-h time point) is given as “significantly higher”. Moreover, in data set [1] (0.1 mg/kg iv 30 min prior to MCAO, after 5.5 h of reperfusion), the “oxidized form of GSH (GSSG) vs vehicle” value was “significantly greater”. Further, in data set [1] (0.1 mg/kg iv 30 min prior to MCAO, any time point), the “total amount of GSH (oxidized and reduced forms) vs vehicle” value was “No significant differences”. In data set [1] (0.1 mg/kg iv 30 min prior to MCAO, any time point during 5.5 h reperfusion), the “cytoplasmic SOD1 activity levels vs vehicle” value is “no significant differences”. Moreover, the “level of hydrogen peroxide vs vehicle” value in data set [1] (0.1 mg/kg iv 30 min prior to MCAO, any time point over 5.5 h reperfusion) was “not significantly greater”. For the same compound, the “DNA fragmentation (apoptotic cell death)” value in data set [1] (0.1 mg/kg iv 30 min prior to MCAO, each time point) is recorded as “No significant changes”. The “HNE-His adduct levels vs vehicle” value in data set [1] (0.1 mg/kg iv 30 min prior to occlusion, following 2 h of reperfusion) is reported as “significantly attenuated”. In data set [2] (HLM control (without NADPH)), the “% Metabolism in 30 minutes” value was 0% and the “CLintr (mL/min/g liver)” value is more than 67 mL/min/g liver. In data set [2] (HLM reaction (with NADPH)), the “% Metabolism in 30 minutes” value is recorded as 0% and the “CLintr (mL/min/g liver)” value is on record as more than 67 mL/min/g liver. Besides, the “level of BRS depression during MCAO” value with Sprague-Dawley rats (0.1 mg/kg iv 30 min prior to I/R) is recorded as “did not alter the level of BRS depression”. In addition, in the data set on Sprague-Dawley rats (setting [3]), the “mean arterial pressure compared with pre-MCAO values” is “no significant differences” and the “mean heart rate compared with pre-MCAO values” is on record as “no significant differences”. Further, the “mean baroreflex sensitivity (BRS)” value in the data set on Sprague-Dawley rats (0.1 mg/kg iv 30 min prior to I/R, within 5 min of the beginning of MCAO, mean±SE) is 0.23±0.05 bpm/mmHg. Also, in the data set with Sprague-Dawley rats (setting [4]), the “mean HR vs vehicle” value was “did not significantly alter” and the “mean arterial blood pressure vs vehicle” value is “did not significantly alter”. The systemic blood pressure result with Sprague-Dawley rats (Example 3, 0.01-0.1 mg/kg, measured continuously over 6 hour period) was “no change in systemic blood pressure”.
